Experimental data as given in patent publication US12091392B2, “Compounds, compositions and methods” (Denali Therapeutics Inc., priority 2019, dated 2024).

system: ATF4 Nano Luciferase reporter (ATF4 translation / ISR pathway activation); test: ATF4 Nano Luciferase reporter integrated stress response (ISR) assay in H4 ATF4-NLuc (clone 17) cells; format: cell-based; conditions: Homo sapiens, 0.5 h, compounds added for 30 minutes at 37° C., then 50 μm sodium arsenite for 6 additional hours, luminescence readout
Description: Cellular stress leads to activation of the integrated stress response pathway through one of four eukaryotic initiation factor 2α kinases and halts global translation, while allowing for the translation of select transcripts like ATF4 (activating transcription factor 4) that are important for the response to cellular stress. During normal conditions, small open reading frames (ORFs) in the 5′ UTR of ATF4 occupy the ribosome and prevent translation of the coding sequence of ATF4. During stress conditions however, the ribosome scans past these upstream ORFs and preferentially begins translation at the coding sequence of ATF4. In this way, the translation, and thus protein level of ATF4 is a readout of ISR pathway activation. Thus, a fusion of the uORFs and the beginning of the coding sequence of ATF to a common cellular reporter like nano-luciferase allows for a sensitive and high-throughput readout of ISR pathway activity.
Certain compounds provided herein were tested in the following assay. The ATF4 Nano Luciferase reporter was constructed by fusing the human full length 5′ untranslated region (5′-UTR) and a small portion of the coding sequence of the ATF4 gene upstream of the Nano Luciferase (NLuc) coding sequence lacking it's start codon. Specifically, nucleotides +1 through +364 (relative to the transcriptional start site) of ATF4 transcript variant 2 (NCBI NM_182810.2) flanked 5′ by EcoRI and 3′ by BamHI restriction enzyme sites were synthesized and cloned into the EcoRI/BamHI cloning sites of pLVX-EF1a-IRES-Puro lentivirus vector (Clontech). Lentiviral particles were produced with Lenti-X single shots (VSV-G, Clontech) according to the manufacturer's instructions and used to transduce a human H4 neuroglioma cell line (ATCC HTB-148). H4 cells were selected with 1.25 μg/mL Puromycin, and clonal cell lines generated by limiting dilution. This cell line was utilized to generate an integrated stress response (ISR) assay to evaluate the activity of ISR pathway inhibitors via luminescence readout. The H4 ATF4-NLuc (clone 17) cell line was plated at a density of 15,000 or 2,500 cells in 96-well or 384-well respectively in DMEM+10% fetal bovine serum. 24-hours later test compounds diluted in dimethyl sulfoxide (DMSO) were added for 30 minutes at 37° C., followed by ISR pathway activation with […] sodium arsenite aqueous solution for 6 additional hours. Nano Glo luciferase reagent (N1150, Promega) was added according to manufacturer instructions and the luminescence signal (corresponding to the level of ATF4 translation and thus ISR pathway activation) was read with a standard plate reader with luminescence detection capabilities. In Table 2, the activity of certain compounds disclosed herein as tested in the assay above is provided.

SMILES	IC50 [nM]
O=C(COc1ccc(Cl)cc1)NC12CC(c3nnc(OCCOC(F)(F)F)o3)(C1)C2 [Example 1]	62
O=C(COc1ccc(C(F)(F)F)cc1)NC12CC(c3nnc(NCCOC(F)(F)F)o3)(C1)C2 [Example 4]	36
CN(CCOC(F)(F)F)c1nnc(C23CC(NC(=O)COc4ccc(C(F)(F)F)cc4)(C2)C3)o1 [Example 5]	54
O=C(COc1ccc(Br)cc1)NC12CC(c3nnc(OCCOC(F)(F)F)o3)(C1)C2 [Example 8, 2-(4-bromophenoxy)-N-(3-(5-(2-(trifluoromethoxy)ethoxy)-1,3,4-oxadiazol-2-yl)bicyclo[1.1.1]pentan-1-yl)acetamide]	23

The next molecules have a lower IC50 than those just listed; values first:

IC50 [nM]	SMILES
21	O=C(COc1ccc(C(F)(F)F)cc1)NC12CC(c3nnc(OCCOCC(F)(F)F)o3)(C1)C2 [Example 6, N-(3-(5-(2-(2,2,2-trifluoroethoxy)ethoxy)-1,3,4-oxadiazol-2-yl)bicyclo[1.1.1]pentan-1-yl)-2-(4-(trifluoromethyl)phenoxy)acetamide]
16	O=C(COc1ccc(Cl)cc1)NC12CC(c3nnc(OCCOCC(F)(F)F)o3)(C1)C2 [Example 3]
16	O=C(COc1ccc(Br)cc1)NC12CC(c3nnc(OCCOCC(F)(F)F)o3)(C1)C2 [Example 7, 2-(4-bromophenoxy)-N-(3-(5-(2-(2,2,2-trifluoroethoxy)ethoxy)-1,3,4-oxadiazol-2-yl)bicyclo[1.1.1]pentan-1-yl)acetamide]
6.1	O=C(COc1ccc(C(F)(F)F)c(F)c1)NC12CC(c3nnc(OCCOCC(F)(F)F)o3)(C1)C2 [Example 9, 2-(3-fluoro-4-(trifluoromethyl)phenoxy)-N-(3-(5-(2-(2,2,2-trifluoroethoxy)ethoxy)-1,3,4-oxadiazol-2-yl)bicyclo[1.1.1]pentan-1-yl)acetamide]
4.9	O=C(COc1ccc(C(F)(F)F)cc1)NC12CC(c3nnc(OCCOC(F)(F)F)o3)(C1)C2 [Example 2]
